Assays:
[1] = target: T1, human, citrated, platelet-rich plasma (Homo sapiens, UniProt P05106+P08514); assay: Test (a): inhibition of ADP stimulated platelet aggregation (Born); assay type: cell-based; conditions: ADP induced aggregation of human platelet-rich plasma; read-out: Test (a): pA2 value indicating potency of platelet aggregation inhibition (converted)
T1 construct: aggregating human, citrated, platelet-rich plasma; endogenous in cells; host or cells: human platelets in citrated platelet-rich plasma
T1 sequence (P08514 32-887 limits assumed): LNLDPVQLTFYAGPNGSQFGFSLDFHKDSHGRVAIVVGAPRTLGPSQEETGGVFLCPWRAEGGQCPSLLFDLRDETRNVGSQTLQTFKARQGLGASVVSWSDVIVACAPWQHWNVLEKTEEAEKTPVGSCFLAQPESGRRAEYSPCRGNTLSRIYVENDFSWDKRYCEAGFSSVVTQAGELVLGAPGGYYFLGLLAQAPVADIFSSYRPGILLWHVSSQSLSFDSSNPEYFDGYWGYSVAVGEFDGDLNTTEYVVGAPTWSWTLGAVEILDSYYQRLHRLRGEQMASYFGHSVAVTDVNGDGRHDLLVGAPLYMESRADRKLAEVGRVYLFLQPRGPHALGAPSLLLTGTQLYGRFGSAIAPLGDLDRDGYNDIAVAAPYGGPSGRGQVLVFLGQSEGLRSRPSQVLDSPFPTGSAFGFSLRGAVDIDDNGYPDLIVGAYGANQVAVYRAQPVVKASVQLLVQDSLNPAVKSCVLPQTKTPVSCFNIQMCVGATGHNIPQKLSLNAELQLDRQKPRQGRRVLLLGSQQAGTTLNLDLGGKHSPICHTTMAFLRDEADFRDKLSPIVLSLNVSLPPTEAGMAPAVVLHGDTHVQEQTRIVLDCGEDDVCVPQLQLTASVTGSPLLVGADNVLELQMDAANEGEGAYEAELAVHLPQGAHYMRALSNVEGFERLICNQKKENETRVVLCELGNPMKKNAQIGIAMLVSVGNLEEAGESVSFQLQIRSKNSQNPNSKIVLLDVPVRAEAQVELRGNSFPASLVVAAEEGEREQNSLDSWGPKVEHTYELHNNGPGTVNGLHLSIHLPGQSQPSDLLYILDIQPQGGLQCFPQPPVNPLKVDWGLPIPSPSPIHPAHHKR
T1 sequence (P08514 891-1039 limits assumed): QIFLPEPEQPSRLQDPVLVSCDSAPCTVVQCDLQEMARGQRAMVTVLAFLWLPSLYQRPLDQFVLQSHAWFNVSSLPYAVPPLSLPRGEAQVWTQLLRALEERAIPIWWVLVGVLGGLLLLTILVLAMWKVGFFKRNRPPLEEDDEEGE
T1 sequence (P05106 27-788): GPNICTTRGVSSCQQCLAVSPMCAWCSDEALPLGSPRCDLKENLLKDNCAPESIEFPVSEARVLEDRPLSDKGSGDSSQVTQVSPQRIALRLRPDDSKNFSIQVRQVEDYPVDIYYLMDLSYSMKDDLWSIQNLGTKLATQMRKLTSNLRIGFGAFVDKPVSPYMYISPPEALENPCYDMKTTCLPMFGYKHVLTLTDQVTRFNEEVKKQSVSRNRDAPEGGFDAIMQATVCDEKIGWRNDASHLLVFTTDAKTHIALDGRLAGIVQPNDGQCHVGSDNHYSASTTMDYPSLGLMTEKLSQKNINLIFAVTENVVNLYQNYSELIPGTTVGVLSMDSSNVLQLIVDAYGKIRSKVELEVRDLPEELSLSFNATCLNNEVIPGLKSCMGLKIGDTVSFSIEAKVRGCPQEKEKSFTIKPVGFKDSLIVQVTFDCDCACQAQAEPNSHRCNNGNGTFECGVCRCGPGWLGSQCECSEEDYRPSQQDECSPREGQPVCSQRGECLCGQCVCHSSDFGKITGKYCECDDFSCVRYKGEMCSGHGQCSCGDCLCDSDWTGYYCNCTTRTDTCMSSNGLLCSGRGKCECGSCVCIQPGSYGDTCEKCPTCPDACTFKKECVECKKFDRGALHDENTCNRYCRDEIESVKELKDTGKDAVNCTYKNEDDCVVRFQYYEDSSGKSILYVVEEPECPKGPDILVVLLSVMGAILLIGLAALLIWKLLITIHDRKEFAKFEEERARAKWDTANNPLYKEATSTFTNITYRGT
Text: (i) aggregating human, citrated, platelet-rich plasma by addition of adenosine diphosphate so as to generate a dose-response curve;
(ii) generating a dose-response curve for ADP stimulated platelet aggregation in the presence of increasing amounts of a test compound (generally in the range 10-^5 M to 10-^10 M); and
(iii) calculating a pA2 value indicating potency of platelet aggregation inhibition for the test compound, averaged over several concentrations, from the calculated 50% response value for ADP aggregation in the presence and absence of the test compound.

[2] = target: T2, purified human platelet fibrinogen receptor (GPIIb/IIIa) (Homo sapiens, UniProt P05106+P08514); assay: Test (b): GPIIb/IIIa ELISA, inhibition of biotinylated fibrinogen binding; conditions: purified human platelet GPIIb/IIIa, ELISA; read-out: Test (b): pIC50 (-log(IC50)), 50% inhibition of biotinylated fibrinogen binding to GPIIb/IIIa (converted)
T2 construct: is isolated from human platelet lysates; from tissue
T2 sequence (P08514 32-887 limits assumed): as the sequence (P08514 32-887 limits assumed) above
T2 sequence (P08514 891-1039 limits assumed): as the sequence (P08514 891-1039 limits assumed) above
T2 sequence (P05106 27-788): as the sequence (P05106 27-788) above
Procedure: (i) Preparation of human platelet lysates.
Platelet rich plasma (PRP) is harvested by centrifugation (1000 rpm, 15 mins) of whole blood anticoaoulated with acid citrate dextrose (trisodium citrate 85 mM, citric acid 70 mM, d-glucose 110 mM) 1 part to 6 parts blood. Prostacyclin (PGI2, 1 μM) is added to the PRP before centrifugation (2400 pm, 15 mins) and the resulting pellet is resuspended in modified Tyrodes' solution (NaCl 130 mM, KCl 26 mM, NaHCO3 12 mM, NaH2 PO4 0.5 mM, MgCl2 1 mM, CaCl2 20 mM, Glucose 12 mM, HEPES 5 mM) containing bovine serum albumin 3.5 g/L, PGI2 1 μM and hirudin 0.5 U/ml. The platelet suspension is centrifuged (2400 rpm, 15 mins) and the resultant pellet resuspended in 500 μl of lysis buffer (octyl glucoside 50 mM, HEPES 10 mM, NaCl 150 mM, CaCl2 1 mM, MgCl2 1 mM, PMSF 1 mM, NEM 10 mM, leupeptin 0.1 mM), agitated at 4° C. for 15 minutes then centrifuged at 24000 rpm, 15 mins. The supernatant is stored at 4° C. and the pellet re-suspended in 500 μl of lysis buffer. The centrifugation process is repeated a further 3 tlimes, the pooled supernatants being stored at -70° C.
(ii) Receptor purification.
GP Ilb/Ila is isolated from human platelet lysates using a 2 ml peptide (KYGRGDS) coupled CNBr activated Sepharose affinity column. A 1.5 ml volume of platelet lysate is placed on the column and allowed to stand overnight at 4° C. Buffer (30 mls, octyl gluicoside 25 mM, HEPES 10 mM, NaCl 150 mM, CaCl2 1 mM, MgCl2 1 mM, PMSF 1 mM, NEM 10 mM, leupeptin 0.1 mM) is passed through the column and 2 ml fractions are collected throughout. GPIIb/IIIa is eluted with 12 mls of buffer containing HHLGGAKQAGDV (2 mg/ml, pH 7.5), the column is washed using 4 mls buffer and the remaining GPIIb/IIIa eluted using 12 mls buffer containing GRGDSPG (1 mg/ml pH 7.5). The column is finally washed using 20 mls of buffer and can be used for up to three such preparations. Fractions containing FGPIIb/IIIa are identified using gel electrophoresis and immunoblotting, pooled and stored at -70° C.
96 well microtitre plates are coated with 100 μl purified human platelet fibrinogen receptor (GPIIb/IIIa) diluted in coating buffer (Tris-HCl 20 mM, NaCl 150 mM, CaCl2 1 mM, pH 7.4) and left overnight at 4° C. The plates are washed using washing buffer (Tris-HCl 50 mM, NaCl 100 mM, CaCl2 2 mM, pH 7.4) and non-specific binding, blocked by the addition of 200 μl 2% BSA (2 hours, 30° C.). The plates are washed prior to incubation (2 hours, 30° C.) with 100 μl biotinylated fibrinogen ([…]) containing either vehicle or test compound. The plates are washed, incubated with streptavidin (5 μg/ml, 1 hour, ambient temperature), then washed again before the addition of 100 μl biotinylated horse radish peroxidase (0.1 μg/ml, 1 hour, ambient temperature). The plates are then washed and equal volumes of peroxidase substrate (3, 5, tetramethyl benzidine 0.4 g/l) and H2 O2 (0.02%) are mixed together immediately before addition of 150 μl to each well. Colour is allowed to develop for 10-15 mins before optical densities are read at 650 nm.
The concentration of compound required to cause 50% inhibition of biotinylated fibrinogen binding, is calculated and expressed as a pIC50 (-log(IC50)).

Row | SMILES | Kb [1] | IC50 [2]
1 | COC(=O)c1cc2cc(C(=O)CN3CCN(c4ccncc4)CC3)ccc2o1 [Example 25, Methyl 5-[2-[4-(4-pyridyl)piperazin-1-yl]acetyl]benzofuran-2-carboxylate] | 7940 nM | 15800 nM
2 | O=C(CN1CCN(c2ccncc2)CC1)c1ccc2oc(C(=O)O)cc2c1 [Example 26, 5-[2-[4-(4-Pyridyl)piperazin-1-yl]acetyl]benzofuran-2-carboxylic acid] | 1580 nM | 631 nM
3 | CCOC(=O)C1CCN(C(=O)CN2CCN(c3ccncc3)CC2)CC1 [Example 27, Ethyl 1-[2-[4-(4-pyridyl)piperazin-1-yl]acetyl]piperidin-4-carboxylate] | 7940 nM | 2510 nM
4 | O=C(O)C1CCN(C(=O)CN2CCN(c3ccncc3)CC2)CC1 [Example 28, 1-[2-[4-(4-Pyridyl)piperazin-1-yl]acetyl]piperidin-4-carboxylic acid] | 20000 nM | 2000 nM
5 | O=C(O)CC1CCN(C(=O)CN2CCN(c3ccncc3)CC2)CC1 [Example 30, 2-[1-[2-[4-(4-Pyridyl)piperazin-1-yl]acetyl]piperidin-4-yl]acetic acid] | 5010 nM | 1260 nM
6 | O=C(O)COC1CCN(C(=O)CN2CCN(c3ccncc3)CC2)CC1 [Example 32, 2-[1-[2-[4-(4-Pyridyl)piperazin-1-yl]acetyl]piperidin-4-yloxy]acetic acid] | 200 nM | 50.1 nM
7 | CCCCS(=O)(=O)N[C@@H](Cc1ccc(OCC2CCN(c3ccncc3)CC2)cc1)C(=O)OC [Example 33, Methyl 2-S-(n-butylsulphonylamino)-3-[4-[1-(4-pyridyl)piperidin-4-yl]methoxyphenyl]propionate] | 398 nM | 126 nM
8 | CCCCS(=O)(=O)N[C@@H](Cc1ccc(OCC2CCN(c3ccncc3)CC2)cc1)C(=O)O [Example 34, 2-S-(n-Butylsulphonylamino)-3-[4-[1-(4-pyridyl)piperidin-4-yl]methoxyphenyl]propionic acid] | 2 nM | 2 nM
9 | CCCCS(=O)(=O)N[C@@H](Cc1ccc(OCCC2CCN(c3ccncc3)CC2)cc1)C(=O)OC [Example 35, Methyl 2-S-(n-butylsulphonylamino)-3-[4-[2-[1-(4-pyridyl)piperidin-4-yl]ethoxy]phenyl]propionate] | 398 nM | 63.1 nM
10 | CCCCS(=O)(=O)N[C@@H](Cc1ccc(OCCC2CCN(c3ccncc3)CC2)cc1)C(=O)O [Example 36, 2-S-(n-Butylsulphonylamino)-3-[4-[2-[1-(4-pyridyl)piperidin-4-yl]ethoxy]phenyl]propionic acid] | 2 nM | 1 nM
11 | CCCCS(=O)(=O)N[C@@H](Cc1ccc(OC2CCN(c3ccncc3)CC2)cc1)C(=O)OC [Example 37, Methyl 2-S-(n-butylsulphonylamino)-3-[4-[1-(4-pyridyl)piperidin-4-yl]oxyphenyl]propionate] | 2510 nM | 200 nM
12 | CCCCS(=O)(=O)N[C@@H](Cc1ccc(OC2CCN(c3ccncc3)CC2)cc1)C(=O)O [Example 38, 2-S-(n-Butylsulphonylamino)-3-[4-[1-(4-pyridyl)piperidin-4-yl]oxyphenyl]propionic acid] | 31.6 nM | 2 nM
13 | O=C(O)C[C@H](NC(=O)CN1CCN(c2ccncc2)CC1)C(=O)N[C@@H](Cc1ccccc1)C(=O)O [Example 39, N-[N-[2-[4-(4-Pyridyl)piperazin-1-yl]acetal]-L-aspartyl]-L-phenylalanine] | 25100 nM | 251 nM
14 | O=C(O)C[C@H](NC(=O)CNC(=O)CN1CCN(c2ccncc2)CC1)C(=O)N[C@@H](Cc1ccccc1)C(=O)O [Example 40] | 79.4 nM | 20 nM
15 | COC(=O)COc1ccc(C(=O)CN2CCN(c3cc(C)nc4ccccc34)CC2)cc1 [Example 41, Methyl 4-[2-[4-(2-methyl-4-quinolinyl)piperazin-1-yl]acetyl]phenoxyacetate] | > 100000 nM | > 100000 nM

Reference: US5750754A, “Heterocyclic compounds” (Zeneca Limited, priority 1993, dated 1998)
